Data as given in ChEMBL document CHEMBL5352493, “Dual inhibitors of ASK1 and PDK1 kinases: Design, synthesis, molecular docking and mechanism studies of N-benzyl pyridine-2-one containing derivatives as anti-fibrotic agents” (Eur J Med Chem, 2023).
Activity calls are given as the source filed them. The rule behind the calls is not given here.

How the values were obtained:
[1] = test system: HFL1; experiment: Downregulation of phosphorylated p38 in TGF-beta1 induced HFL1 cells at 7.5 to 15 uM for 24 hrs by Western blotting analysis; format: functional, cell-based; conditions: Homo sapiens, dose 7.5-15 µM
[2] = test system: HFL1; experiment: Downregulation of phosphorylated JNK in TGF-beta1 induced HFL1 cells at 7.5 to 15 uM for 24 hrs by Western blotting analysis; format: functional, cell-based; conditions: Homo sapiens, dose 7.5-15 µM
[3] = test system: HFL1; experiment: Induction of apoptosis in HLF1 cells assessed as viable cells at 15 uM incubated for 24 hrs measured by annexinV-FITC/PI based flow cytometric analysis (reference value: 88.3%); format: functional; conditions: Homo sapiens, read-out: Activity
[4] = test system: HFL1; experiment: Induction of apoptosis in HLF1 cells assessed as necrotic cells at 15 uM incubated for 24 hrs measured by annexinV-FITC/PI based flow cytometric analysis (reference value: 0%); format: functional, Homo sapiens
[5] = test system: HFL1; experiment: Induction of apoptosis in HLF1 cells assessed as viable cells at 22.5 uM incubated for 24 hrs measured by annexinV-FITC/PI based flow cytometric analysis (reference value: 88.3%); format: functional; conditions: Homo sapiens, read-out: Activity
[6] = Antiproliferative against rat HSC-T6 cells measured after 48 hrs by CCK8 assay; format: toxicity, cell-based
[7] = Antiproliferative against human BEAS-2B cells measured after 48 hrs by CCK8 assay; format: toxicity, cell-based
[8] = test system: HFL1; experiment: Induction of apoptosis in HLF1 cells assessed as early apoptotic cells at 7.5 uM incubated for 24 hrs measured by annexinV-FITC/PI based flow cytometric analysis (reference value: 11.6%); format: functional, Homo sapiens
[9] = test system: HFL1; experiment: Antifibrotic activity in TGF-beta1 induced HLF1 cells assessed as decrease in phosphorylated smad3 level measured at 7.5 to 15 uM after 24 hrs by Western blotting analysis; format: functional, cell-based; conditions: Homo sapiens, dose 7.5-15 µM
[10] = test system: HFL1; experiment: Induction of apoptosis in HLF1 cells assessed as necrotic cells at 22.5 uM incubated for 24 hrs measured by annexinV-FITC/PI based flow cytometric analysis (reference value: 0%); format: functional, Homo sapiens
[11] = test system: HFL1; experiment: Induction of apoptosis in HLF1 cells assessed as late apoptotic cells at 7.5 uM incubated for 24 hrs measured by annexinV-FITC/PI based flow cytometric analysis (reference value: 0.08%); format: functional, Homo sapiens
[12] = test system: HFL1; experiment: Antifibrotic activity in TGF-beta1 induced HLF1 cells assessed as decrease in alpha SMA expression level measured at 7.5 to 15 uM after 24 hrs by Western blotting analysis; format: functional, cell-based; conditions: Homo sapiens, dose 7.5-15 µM
[13] = biological target: T1, Mitogen-activated protein kinase kinase kinase 5 (Homo sapiens, UniProt Q99683); experiment: Inhibition of human recombinant ASK1 using MBP as substrate preincubated for 1 hr followed by reagent addition incubated for 40 mins by ATP-Glo kinase assay
T1 sequence (Q99683 whole entry): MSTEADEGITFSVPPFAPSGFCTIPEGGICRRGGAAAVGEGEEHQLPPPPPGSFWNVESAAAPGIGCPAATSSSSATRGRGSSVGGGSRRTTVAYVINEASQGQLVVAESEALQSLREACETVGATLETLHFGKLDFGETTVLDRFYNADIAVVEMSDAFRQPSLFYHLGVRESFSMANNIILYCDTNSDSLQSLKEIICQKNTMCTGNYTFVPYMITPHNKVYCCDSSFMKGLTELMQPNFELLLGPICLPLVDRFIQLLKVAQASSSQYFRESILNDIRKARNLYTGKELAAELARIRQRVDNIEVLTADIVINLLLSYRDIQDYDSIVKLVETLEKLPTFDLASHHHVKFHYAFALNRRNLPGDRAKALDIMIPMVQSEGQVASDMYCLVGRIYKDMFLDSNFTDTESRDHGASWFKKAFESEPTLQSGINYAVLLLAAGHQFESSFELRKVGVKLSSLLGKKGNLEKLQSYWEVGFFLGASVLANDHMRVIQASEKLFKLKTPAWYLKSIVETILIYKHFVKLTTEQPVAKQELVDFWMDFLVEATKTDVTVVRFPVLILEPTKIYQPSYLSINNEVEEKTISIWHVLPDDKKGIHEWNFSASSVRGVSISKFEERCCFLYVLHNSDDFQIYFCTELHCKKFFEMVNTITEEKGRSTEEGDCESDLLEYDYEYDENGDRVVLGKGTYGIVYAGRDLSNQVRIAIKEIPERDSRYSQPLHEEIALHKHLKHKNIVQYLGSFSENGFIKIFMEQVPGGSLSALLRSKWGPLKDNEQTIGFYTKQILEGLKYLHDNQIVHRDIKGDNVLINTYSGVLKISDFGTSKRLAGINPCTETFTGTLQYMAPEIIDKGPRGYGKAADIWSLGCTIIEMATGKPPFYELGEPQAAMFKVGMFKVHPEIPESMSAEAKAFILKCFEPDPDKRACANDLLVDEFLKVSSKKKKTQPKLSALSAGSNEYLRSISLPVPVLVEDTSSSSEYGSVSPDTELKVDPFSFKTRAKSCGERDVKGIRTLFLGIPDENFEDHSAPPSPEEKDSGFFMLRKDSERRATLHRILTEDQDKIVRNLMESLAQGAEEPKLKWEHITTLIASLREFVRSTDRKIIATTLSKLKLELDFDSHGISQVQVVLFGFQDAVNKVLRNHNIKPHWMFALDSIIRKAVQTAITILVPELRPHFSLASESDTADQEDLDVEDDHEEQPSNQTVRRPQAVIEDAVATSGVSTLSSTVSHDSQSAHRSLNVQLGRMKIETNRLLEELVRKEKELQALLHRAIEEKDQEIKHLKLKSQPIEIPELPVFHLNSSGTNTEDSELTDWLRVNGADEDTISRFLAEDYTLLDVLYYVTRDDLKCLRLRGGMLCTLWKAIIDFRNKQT

[14] = test system: HFL1; experiment: Induction of apoptosis in HLF1 cells assessed as necrotic cells at 7.5 uM incubated for 24 hrs measured by annexinV-FITC/PI based flow cytometric analysis (reference value: 0%); format: functional, Homo sapiens
[15] = test system: HFL1; experiment: Antifibrotic activity in TGF-beta1 induced HLF1 cells assessed as decrease in collagen - I expression level measured at 7.5 to 15 uM after 24 hrs by Western blotting analysis; format: functional, cell-based; conditions: Homo sapiens, dose 7.5-15 µM
[16] = test system: HFL1; experiment: Downregulation of phosphorylated Akt in TGF-beta1 induced HFL1 cells at 7.5 microM for 24 hrs by Western blotting analysis; format: functional, cell-based; conditions: Homo sapiens
[17] = test system: HFL1; experiment: Induction of apoptosis in HLF1 cells assessed as early apoptotic cells at 15 uM incubated for 24 hrs measured by annexinV-FITC/PI based flow cytometric analysis (reference value: 11.6%); format: functional, Homo sapiens
[18] = test system: HFL1; experiment: Induction of apoptosis in HLF1 cells assessed as early apoptotic cells at 22.5 uM incubated for 24 hrs measured by annexinV-FITC/PI based flow cytometric analysis (reference value: 11.6%); format: functional, Homo sapiens
[19] = test system: HFL1; experiment: Downregulation of phosphorylated ASK1 in TGF-beta1 induced HFL1 cells at 7.5 to 15 uM for 24 hrs by Western blotting analysis; format: functional, cell-based; conditions: Homo sapiens, dose 7.5-15 µM
[20] = test system: HFL1; experiment: Antifibrotic activity in TGF-beta1 induced HLF1 cells assessed as decrease in phosphorylated smad2 level measured at 7.5 to 15 uM after 24 hrs by Western blotting analysis; format: functional, cell-based; conditions: Homo sapiens, dose 7.5-15 µM
[21] = Antiproliferative against HLF1 cells measured after 48 hrs by CCK8 assay; format: toxicity, cell-based; conditions: human, HFL1 cells (description prints HLF1)
[22] = test system: HFL1; experiment: Induction of apoptosis in HLF1 cells assessed as decrease in antiapoptotic Bcl-2 protein at 7.5 to 15 uM for 24 hrs by Western blotting analysis; format: functional, cell-based; conditions: Homo sapiens, dose 7.5-15 µM
[23] = Antiproliferative against rat NRK-49F cells measured after 48 hrs by CCK8 assay; format: toxicity, cell-based
[24] = test system: HFL1; experiment: Induction of apoptosis in HLF1 cells assessed as late apoptotic cells at 22.5 uM incubated for 24 hrs measured by annexinV-FITC/PI based flow cytometric analysis (reference value: 0.08%); format: functional, Homo sapiens
[25] = test system: HFL1; experiment: Induction of apoptosis in HLF1 cells assessed as viable cells at 7.5 uM incubated for 24 hrs measured by annexinV-FITC/PI based flow cytometric analysis (reference value: 88.3%); format: functional; conditions: Homo sapiens, read-out: Activity
[26] = test system: HFL1; experiment: Induction of apoptosis in HLF1 cells assessed as late apoptotic cells at 15 uM incubated for 24 hrs measured by annexinV-FITC/PI based flow cytometric analysis (reference value: 0.08%); format: functional, Homo sapiens
[27] = test system: HFL1; experiment: Downregulation of phosphorylated PDK1 in TGF-beta1 induced HFL1 cells at 7.5 to 15 microM for 24 hrs by Western blotting analysis; format: functional, cell-based; conditions: Homo sapiens, dose 7.5-15 µM

Compound: O=C(Nc1cccc(-c2nncn2C2CC2)n1)c1cc(-c2cnn(C3CC3)c2)cn(Cc2ccccc2F)c1=O
- Activity [1]: Active
- Activity [2]: Active
- viability at 15 µM [3]: 67.6%
- Activity [4]: 0%
- viability at 22.5 µM [5]: 69.6%
- IC50 at 48 h [6]: 35.5 µM
- IC50 at 48 h [7]: 36 µM
- Activity [8]: 28.7%
- Activity [9]: Active
- Activity [10]: 0.015%
- Activity [11]: 0.083%
- Activity [12]: Dose-Dependent Effect
- IC50 [13]: 0.00173 µM
- Activity [14]: 0%
- Activity [15]: Dose-Dependent Effect
- Activity [16]: Active
- Activity [17]: 32.3%
- Activity [18]: 30.3%
- Activity [19]: Active
- Activity [20]: Active
- IC50 at 48 h [21]: 15.2 µM
- Activity [22]: Active
- IC50 at 48 h [23]: 21.1 µM
- Activity [24]: 0.104%
- viability at 7.5 µM [25]: 71.2%
- Activity [26]: 0.079%
- Activity [27]: Dose-Dependent Effect
